Laboratory results published in publication PMC8816521, “Flux-Based Formulation Development—A Proof of Concept Study” (The AAPS Journal, 2022).
≈ marks a conversion by molar mass, not a printed value. Where two headings read alike, the source gives them in different places.

How the values were obtained:
[1] = Solubility of TEL; assay type: physicochemical
[2] = PAMPA for evaluating the effect of formulation additives on TEL permeability; assay type: in vitro ADME; settings: for Pe: acceptor pH 7.4, 37°C
Protocol: Each well of the top (donor) compartment of 96-well […]™ PAMPA sandwich (Pion Inc., Billerica MA, USA) was coated with 4 μL of n-dodecane. Before forming the sandwich, the bottom (acceptor) plate was prefilled with 180 μL of pH = 7.4 Prisma^HT buffer. The donor plate was filled with 200 μL of FaSSIF buffer with pre-dissolved TEL and formulation additives. The resultant sandwich was incubated at 37°C, and both compartments were stirred at 60 μm (ABL) with Gut-Box™ (Pion Inc., Billerica MA, USA). After 30 min, the PAMPA sandwich was separated, and 100 μL of both the donor and acceptor compartments were transferred to UV plates (UV-star micro plate, clear, flat bottom, half area, Greiner Group AG, Kremsmünster, Austria). UV absorption (230–400 nm) was measured with Tecan Infinite M200 (Tecan Group Ltd., Mannedorf, Switzerland) driven by PAMPA Explorer software™ (Pion Inc., Billerica MA, USA). Three parallel measurements were performed, and the data were measured with six replicates on every single plate.
(§1) The flux across the membrane was calculated using the following equation: 1 Jt=Δn/A*Δt
(§2) where the flux (J) of a drug through the membrane is defined as the amount (n) of drug crossing a unit area (A) perpendicular to its flow per unit time (t). 2 Pe=J/CD where the Pe is the effective permeability of the drug and CD is donor concentration.
At first, an excipient screening on the PAMPA platform was carried out. The excipients of the available TEL formulations and commonly used standard excipients were involved in the investigation of API-excipient interaction. The concentration of the excipients was determined by referring the usual amount of additives in one tablet to 900 mL dissolution media. Due to the experimental differences in the applied doses, the flux data were considered misleading, and the permeability value was used since it is normalized by the donor concentration.

[3] = Kinetic solubility in FaSSIF with pre-dissolved additives (in situ UV probes, ZIM); assay type: physicochemical; settings: 37 °C
Protocol: Note that in the context of this manuscript, solubility measured by this method will be called kinetic solubility because the form of the solid phase precipitating during these assays was not characterized. […] Ten milliliters of dissolution medium consisting of equilibrated fasted state simulated intestinal fluid (FaSSIF) buffer containing pre-dissolved additives was stirred at 200 rpm and held at 37°C by circulating water through a heating block mounted to a Pion μDISS™ profiler (Pion Inc., Billerica MA, USA). The stock solution was added in 20 μL aliquots to the dissolution medium. 1 M HCl was used to readjust the pH of the media after every addition of the stock solution. During and after addition of the stock solution, UV probes connected to a Pion Rainbow™ Dynamic Dissolution Monitor® system were used to detect changes in UV spectra, thus enabling the detection of precipitation, which provides information about the kinetic solubility limit.
The zero intercept method (ZIM) was implemented in the AuPRO™ software (Pion Inc., Billerica MA, USA), which was considered a suitable method for detecting the solid nanoparticles in solution. It can be noticed that the second derivative spectrum of a particular compound usually crosses the wavelength axis at specific wavelengths that we will call zero intercept method points or ZIM points (λZIM). The ZIM points are characteristic of the compound and are independent of the concentration. The second derivative values at λZIM are expected to be zero […] the compound is fully dissolved. After a critical concentration, solid particles appear in the solution, and a ZIM point shift can be observed. In case of TEL, the ZIM evaluation was carried out at a wavelength of 318 nm.

[4] = design: method as in PMID 18501462, PMID 31458196; settings: between pH 3 and 8; cited from earlier work
[5] = Small volume dissolution-permeation (MicroFLUX); assay type: in vitro ADME; settings: small scale; donor pH 1.6 converted to FaSSIF pH 6.5 after 30 min, acceptor pH 7.4, 37°C, calculated between 70 and 100 min
Protocol: as §1, §2
Electrospun formulations of TEL were tested using μFLUX (Pion Inc., Billerica MA, USA) apparatus which consists of a donor and an acceptor chamber separated by an artificial membrane (PVDF, polyvinylidenfluoride, 0.45 μm, 1.54 cm^2) impregnated with 25 μL n-dodecane to form a lipophilic barrier between the donor and acceptor chambers. In case of oral drug delivery, the donor chamber represents the stomach’s condition, while the 18 mL pH 7.4 buffer of acceptor chamber represents the blood circulation. The attempt was started in 16 mL pH 1.6 buffer solution; then after 30 min, media in the dissolution vessel was converted to FaSSIF (pH 6.5) by adding 4 mL of SIF concentrate. Both chambers were stirred at 250 rpm at 37°C to keep the thickness of the unstirred aqueous layer on minimum. In both chambers, the API concentration was followed by immersed UV probes connected to the Rainbow instrument (Pion Inc., Billerica MA, USA). The flux and permeability values were calculated using Eqs. (1) and (2) between 70 and 100 min. […]

[6] = Large volume dissolution-permeation (MacroFLUX); assay type: in vitro ADME; settings: large scale; donor SGF pH 1.6 converted to FaSSIF pH 6.5 after 30 min, acceptor pH 7.4, 37°C, calculated between 70 and 100 min
Protocol: Final dosage forms of TEL were tested using MacroFLUX^TM (Pion Inc., Billerica MA, USA). […] The flux and permeability values were calculated using Eqs. (1) and (2) between 70 and 100 min.
The MacroFLUX system equipped with in situ fiber optic concentration monitoring was used in this final investigation. The same media conversion protocol as in the case of small volume dissolution-permeation measurements was applied in the dissolution vessel [28]. Micardis, the brand formulation, and the pure amorphous drug were used as references.
Receiver chamber integrated with permeation membrane, overhead stirrer and fiber optic UV probe was inserted in the standard 900 mL vessel of USP 2 apparatus (Erweka DT 126 Dissolution Tester, Heusenstamm Germany). A filter-supported artificial membrane (hydrophobic PVDF, polyvinylidenfluoride, 0.45 μm pore size, 3.8 cm^2) impregnated with 50 μL of n-dodecane was separating the dissolution (donor) compartment from the receiver compartment containing 13 mL of pH 7.4 (Prisma^HT, Pion Inc.). The experiment began in 850 mL of pH 1.6 buffer simulating gastric conditions (SGF) on the donor side and then after 30 minutes media in the dissolution vessel was converted to fasted state simulated intestinal fluid (FaSSIF V1) (pH 6.5) by adding 212.5 mL of specially formulated concentrate containing SIF powder. […]

With `CCCc1nc2c(C)cc(-c3nc4ccccc4n3C)cc2n1Cc1ccc(-c2ccccc2C(=O)O)cc1` [TEL, telmisartan] the “Solubility in 1 M NaOH solution” value ([1]; 1 M NaOH solution, aqueous) was “dissolves extremely well”, the solubility ([1]; pH 6.5, crystalline TEL in FaSSIF media) was less than 1 µg/mL and the Papp at 30 min ([2]; PAMPA, excipient-free TEL on the plate of the additive in that table row, FaSSIF donor, 37°C, read-out: Reference Pe) was 111 ×10⁻⁶ cm/s. The Pe ([2]; TEL with HMPC 2910 212 μg/mL in FaSSIF donor, 30 min) was 1.22 10^−4 cm/sec, the Pe ([2]; TEL with HPMC-AS 212 μg/mL in FaSSIF donor, 30 min) was 1.28 10^−4 cm/sec and the Pe ([2]; TEL with HPβCD 1386 μg/mL in FaSSIF donor, 30 min) was 1.21 10^−4 cm/sec. The Pe ([2]; TEL with Lactose monohydrate 667 μg/mL in FaSSIF donor, 30 min) was 1.39 10^−4 cm/sec, the Pe ([2]; TEL with Mannitol 667 μg/mL in FaSSIF donor, 30 min) was 1.23 10^−4 cm/sec and the Pe ([2]; TEL with PVP K30 212 μg/mL in FaSSIF donor, 30 min) was 1.31 10^−4 cm/sec. For the same molecule, the Pe ([2]; TEL with PVP K90 212 μg/mL in FaSSIF donor, 30 min) was 1.25 10^−4 cm/sec, the Pe ([2]; TEL with SDS 850 μg/mL in FaSSIF donor, 30 min) was 0.83 10^−4 cm/sec and the Pe ([2]; TEL with Sorbitol 667 μg/mL in FaSSIF donor, 30 min) was 1.42 10^−4 cm/sec. The Pe ([2]; TEL with Tween 80 0.45 μg/mL in FaSSIF donor, 30 min) was 0.86 10^−4 cm/sec, the “Reference Pe” value ([2]; excipient-free TEL on the plate of the additive in that table row, FaSSIF donor, 37°C, 30 min) was 1.16 10^−4 cm/sec and the solubility kinetic ([3]; FaSSIF buffer with pre-dissolved additive, pH 6.5, aqueous with cosolvent or surfactant or cyclodextrin, TEL in FaSSIF with HPβCD 1386 μg/mL) was 37.5 µg/mL (≈ 72.9 µM). For the same molecule, the solubility kinetic ([3]; FaSSIF buffer with pre-dissolved additive, pH 6.5, aqueous with cosolvent or surfactant or cyclodextrin, TEL in FaSSIF with SDS 850 μg/mL) was 45.9 µg/mL (≈ 89.1 µM), the solubility kinetic ([3]; FaSSIF buffer with pre-dissolved additive, pH 6.5, aqueous with cosolvent or surfactant or cyclodextrin, TEL in FaSSIF with Tween 80 0.45 μg/mL) was 64.3 µg/mL (≈ 125 µM) and the solubility kinetic ([3]; FaSSIF buffer with pre-dissolved additive, pH 6.5, fassif, TEL in FaSSIF with HMPC 2910 212 μg/mL) was 30.9 µg/mL (≈ 60 µM). It also gave a solubility kinetic ([3]; FaSSIF buffer with pre-dissolved additive, pH 6.5, fassif, TEL in FaSSIF with HPMC-AS 212 μg/mL) of 34.1 µg/mL (≈ 66.3 µM), a solubility kinetic ([3]; FaSSIF buffer with pre-dissolved additive, pH 6.5, fassif, TEL in FaSSIF with Lactose monohydrate 667 μg/mL) of 32.8 µg/mL (≈ 63.7 µM) and a solubility kinetic ([3]; FaSSIF buffer with pre-dissolved additive, pH 6.5, fassif, TEL in FaSSIF with Mannitol 667 μg/mL) of 39.7 µg/mL (≈ 77.1 µM). The solubility kinetic ([3]; FaSSIF buffer with pre-dissolved additive, pH 6.5, fassif, TEL in FaSSIF with PVP K30 212 μg/mL) was 34.7 µg/mL (≈ 67.4 µM), the solubility kinetic ([3]; FaSSIF buffer with pre-dissolved additive, pH 6.5, fassif, TEL in FaSSIF with PVP K90 212 μg/mL) was 34.4 µg/mL (≈ 66.8 µM) and the solubility kinetic ([3]; FaSSIF buffer with pre-dissolved additive, pH 6.5, fassif, TEL in FaSSIF with Sorbitol 667 μg/mL) was 30.7 µg/mL (≈ 59.7 µM). The solubility kinetic ([3]; FaSSIF buffer, pH 6.5, fassif, TEL in FaSSIF, no additive (0 μg/mL)) was 37.3 µg/mL (≈ 72.4 µM) and the solubility [4] was “practically insoluble”.

With `CCCc1nc2c(C)cc(-c3nc4ccccc4n3C)cc2n1Cc1ccc(-c2ccccc2C(=O)O)cc1` [Tel_amorphous, telmisartan] the Pe [5] was 1.19 10^−4 cm/sec and the Pe [6] was 1.03 10^−4 cm/sec.
